# Data: EP0908457B1, “3-(1,2-benzisothiazol- and isoxazol-5-Y1)-2,4(1H,3H)-pyrimidinedione or thione and 3-(1,2-benzisothiazol- and isoxazol-5-y1)-4(3H)-pyrimidinone or thione herbicidal agents” (BASF AKTIENGESELLSCHAFT, priority 1997, dated 1999)
# Key:
# [1] = test system: Cyperus iria; assay: Preemergence weed control under flooded paddy conditions, CYPIR (Rice Flatsedge); assay type: in vivo; conditions: preemergence weeds, flooded paddy, rated three to four weeks after treatment
# [2] = test system: Oryza sativa, (L.) Tebonnet; assay: Rice tolerance to post-transplant applications under flooded paddy conditions (Example 187), ORYSAT (Rice, Tebonnet); conditions: rated three to four weeks after treatment
# [3] = test system: Cyperus serotinus, Rottb.; assay: Preemergence weed control under flooded paddy conditions, CYPSE (Flatsedge); assay type: in vivo; conditions: preemergence weeds, rated three to four weeks after treatment
# [4] = test system: Sagittaria pygmaea, L.; assay: Preemergence weed control under flooded paddy conditions, SAGPY (Arrowhead (Pygmaea)); assay type: in vivo; conditions: preemergence weeds, flooded paddy, rated three to four weeks after treatment
# [5] = test system: Echinochloa oryzoides (Ard.) Fritsch.; assay: Preemergence weed control under flooded paddy conditions, ECHORC (Watergrass (Calif.)); assay type: in vivo; conditions: preemergence weeds, flooded paddy, rated three to four weeks after treatment
# Note: meaning of each grade not given here.
SMILES,"herbicidal effect rating, CYPIR ([1]; Rate 0.0320 kg/ha)","herbicidal effect rating, CYPIR ([1]; Rate 0.0620 kg/ha)","herbicidal effect rating, CYPIR ([1]; Rate 0.1250 kg/ha)","herbicidal effect rating, CYPIR ([1]; Rate 0.2500 kg/ha)",herbicidal effect rating ORYSAT ([2]; Rate 0.0320 kg/ha),herbicidal effect rating ORYSAT ([2]; Rate 0.0620 kg/ha),herbicidal effect rating ORYSAT ([2]; Rate 0.1250 kg/ha),herbicidal effect rating ORYSAT ([2]; Rate 0.2500 kg/ha),"herbicidal effect rating, CYPSE ([3]; Rate 0.0320 kg/ha)","herbicidal effect rating, CYPSE ([3]; Rate 0.0620 kg/ha)","herbicidal effect rating, CYPSE ([3]; Rate 0.1250 kg/ha)","herbicidal effect rating, CYPSE ([3]; Rate 0.2500 kg/ha)","herbicidal effect rating, SAGPY ([4]; Rate 0.0320 kg/ha)","herbicidal effect rating, SAGPY ([4]; Rate 0.0620 kg/ha)","herbicidal effect rating, SAGPY ([4]; Rate 0.1250 kg/ha)","herbicidal effect rating, SAGPY ([4]; Rate 0.2500 kg/ha)","herbicidal effect rating, ECHORC ([5]; Rate 0.0320 kg/ha)","herbicidal effect rating, ECHORC ([5]; Rate 0.0620 kg/ha)","herbicidal effect rating, ECHORC ([5]; Rate 0.1250 kg/ha)","herbicidal effect rating, ECHORC ([5]; Rate 0.2500 kg/ha)"
"CSc1ccc(C)cc1-c1nsc2ccc(-n3c(=O)cc(C(F)(F)F)n(C)c3=O)cc12 [Example 342, 2,4(1H,3H)-Pyrimidinedione, 1-methyl-3-{3-[6-(methylthio)-m-tolyl]-1,2-benzisothiazol-5-yl}-6-(trifluoromethyl)-]",0.0,0.0,4.0,8.0,0.0,0.0,2.0,3.0,0.0,0.0,0.0,9.0,0.0,0.0,0.0,2.0,4.0,4.0,7.0,7.0
"Cn1c(C(F)(F)F)cc(=O)n(-c2ccc3snc(-c4ccccc4OCC(=O)NS(=O)(=O)CCl)c3c2)c1=O [Example 344, Acetamide, N-[(chloromethyl)sulfonyl]-2-{o-{5-[3,6-dihydro-3-methyl-2,6-dioxo-4-(trifluoromethyl)-1(2H)-pyrimidinyl]-1,2-benzisothiazol-3-yl}phenoxy}-]",6.0,6.0,7.0,9.0,2.0,5.0,5.0,9.0,6.0,6.0,6.0,6.0,0.0,0.0,3.0,6.0,4.0,7.0,7.0,9.0
"COC(=O)COc1ccc(OC)cc1-c1nsc2ccc(-n3c(=O)cc(C(F)(F)F)n(C)c3=O)cc12 [Example 347, Acetic acid, {2-{5-[3,6-dihydro-3-methyl-2,6-dioxo-4-(trifluoromethyl)-1(2H)-pyrimidinyl]-1,2-benzisothiazol-3-yl}-4-methoxyphenoxy}-, methyl ester]",7.0,9.0,9.0,9.0,3.0,6.0,7.0,9.0,0.0,0.0,4.0,7.0,2.0,3.0,4.0,5.0,7.0,9.0,9.0,9.0
